According to patent US12577231B2, “Androgen receptor PROTACS” (GlaxoSmithKline Intellectual Property Development Limited, priority 2023, dated 2026):
Residue numbers refer to the chain shown, from its start.

Assays:
[1] = target: T1, Androgen Receptor, VCaP (AR wild type and amplified) (Homo sapiens, UniProt P10275); test: Androgen Receptor Degradation-Imaging Assay, VCaP cell line; format: cell-based; conditions: 16 hours treatment, maximum observed degradation
T1 construct: endogenous in cells; host or cells: VCaP
T1 sequence (P10275 1-920): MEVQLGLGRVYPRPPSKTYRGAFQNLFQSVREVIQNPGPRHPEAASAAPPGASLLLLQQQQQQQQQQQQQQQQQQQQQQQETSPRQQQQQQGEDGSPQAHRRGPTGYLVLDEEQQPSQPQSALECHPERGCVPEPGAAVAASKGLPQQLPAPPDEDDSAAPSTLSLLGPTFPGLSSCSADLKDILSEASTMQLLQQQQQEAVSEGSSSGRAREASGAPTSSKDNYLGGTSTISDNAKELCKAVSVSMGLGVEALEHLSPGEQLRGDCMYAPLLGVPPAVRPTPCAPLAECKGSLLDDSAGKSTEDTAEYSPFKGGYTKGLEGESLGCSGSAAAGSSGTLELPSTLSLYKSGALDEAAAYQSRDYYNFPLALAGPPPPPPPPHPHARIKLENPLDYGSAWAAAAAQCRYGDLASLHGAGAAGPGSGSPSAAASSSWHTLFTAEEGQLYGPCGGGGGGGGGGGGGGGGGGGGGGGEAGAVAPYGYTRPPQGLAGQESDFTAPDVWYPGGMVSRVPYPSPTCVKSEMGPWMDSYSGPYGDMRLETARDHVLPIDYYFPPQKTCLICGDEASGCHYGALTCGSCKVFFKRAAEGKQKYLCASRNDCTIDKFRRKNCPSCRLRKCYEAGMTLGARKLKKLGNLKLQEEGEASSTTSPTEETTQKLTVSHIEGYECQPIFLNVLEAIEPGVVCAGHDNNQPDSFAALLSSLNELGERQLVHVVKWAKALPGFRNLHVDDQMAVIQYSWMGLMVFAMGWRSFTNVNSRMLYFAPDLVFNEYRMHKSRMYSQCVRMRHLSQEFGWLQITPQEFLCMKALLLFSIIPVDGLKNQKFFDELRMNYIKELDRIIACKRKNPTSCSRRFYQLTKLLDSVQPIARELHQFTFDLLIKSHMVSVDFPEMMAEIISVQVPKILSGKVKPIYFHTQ
Description: (§1) Degradation of Androgen Receptor (AR) protein in human prostate cancer cell lines (MDA-PCa-2b (AR T878A/L702H), LNCaP (AR T878A), VCaP (AR wild type and amplified) 22RV1 (AR H875Y) and PC3 (AR negative control)) treated with AR PROTACs was quantified using immunofluorescence. Prostate cancer cells were plated (MDA-PCa-2b, and VCaP 16,000 cells/well; LNCaP and 22RV1 32,000 cells/well, and PC3 8,000 cells/well) in an optical bottom 96-well cell culture plate and allowed to attach overnight. The prostate cancer cell lines were treated for 16 hours with a 10-point 3-fold dilution series (dose range=0.02 nM to 333 nM). PC3 is included as an AR negative control and not treated with compound. Cells are fixed and permeabilized with 4% formaldehyde, blocked with 10% goat serum in immunofluorescence (IF) buffer (130 mM NaCl, 7 mM Na2HPO4, 3.5 mM NaH2PO4, 7.7 mM NaN3, 0.1% BSA, 0.2% Triton X, 0.05% Tween 20) prior to overnight incubation with rabbit antibody specific for C terminus of AR (commercially available from RevMaB Biosciences). Following washes with IF buffer, cells were incubated with fluorescent secondary antibody (Goat anti-rabbit Alexa 647; commercially available from Invitrogen) and Hoechst nuclear stain (commercially available from Themo Scientific) prior to quantification of nuclear AR levels via Opera Phenix high-content fluorescent imager using a 40× water objective. Image analysis was performed with Harmony software.
(§2) The averaged nuclear Alexa 647 median fluorescence intensity (MFI) of PC3 cells is subtracted from the nuclear Alexa 647 MFI of PROTAC treated and DMSO control treated cells. % AR remaining is calculated for PROTAC treatments as a percent of the DMSO control (MFI PROTAC treated/MFI DMSO control treated)*100). DC50 and the Dmax values, were obtained from these normalised values fitted with a 4-parameter sigmoidal response curve (Xlfit software). The DC50 is the interpolated concentration of PROTAC corresponding to 50% of the protein being degraded, and the Dmax parameter is the maximum experimentally observed degradation.

[2] = target: T2, Androgen Receptor, MDA-PCa-2b (AR T878A/L702H) (Homo sapiens, UniProt P10275, L702H/T878A); test: Androgen Receptor Degradation-Imaging Assay, MDA-PCa-2b cell line; format: cell-based; conditions: 16 hours treatment, maximum observed degradation
T2 construct: host or cells: MDA-PCa-2b
T2 sequence (P10275 1-920 L702H/T878A): T1 sequence (P10275 1-920) with L702H, T878A
Description: as §1, §2

COc1c(C#N)ccc(O[C@H]2C(C)(C)[C@H](NC(=O)c3ccc(N4CCC(CN5CCC(n6ncc7c(N8CCC(=O)NC8=O)cccc76)CC5)CC4)c(F)c3)C2(C)C)c1C [Example 5, N-((1r,3r)-3-(4-Cyano-3-methoxy-2-methylphenoxy)-2,2,4,4-tetramethylcyclobutyl)-4-(4-((4-(4-(2,4-dioxotetrahydropyrimidin-1(2H)-yl)-1H-indazol-1-yl)piperidin-1-yl)methyl)piperidin-1-yl)-3-fluorobenzamide]
Dmax [1]: ≥ 80% | Dmax [2]: ≥ 80%

CC1(C)[C@H](NC(=O)c2ccc(N3CCC(CN4CCC(n5ncc6c(N7CCC(=O)NC7=O)c(F)ccc65)CC4)CC3)c(F)c2)C(C)(C)[C@H]1Oc1ccc(C#N)c2ncccc12 [Example 50, N-((1r,3r)-3-((8-Cyanoquinolin-5-yl)oxy)-2,2,4,4-tetramethylcyclobutyl)-4-(4-((4-(4-(2,4-dioxotetrahydropyrimidin-1(2H)-yl)-5-fluoro-1H-indazol-1-yl)piperidin-1-yl)methyl)piperidin-1-yl)-3-fluorobenzamide]
Dmax [1]: ≥ 80% | Dmax [2]: ≥ 80%

CC1(C)[C@H](NC(=O)c2ccc(N3CCC(CN4CCC(n5ccc6c(N7CCC(=O)NC7=O)cc(F)cc65)CC4)CC3)c(F)c2)C(C)(C)[C@H]1Oc1ccc(C#N)c2ncccc12 [Example 32, N-((1r,3r)-3-((8-Cyanoquinolin-5-yl)oxy)-2,2,4,4-tetramethylcyclobutyl)-4-(4-((4-(4-(2,4-dioxotetrahydropyrimidin-1(2H)-yl)-6-fluoro-1H-indol-1-yl)piperidin-1-yl)methyl)piperidin-1-yl)-3-fluorobenzamide]
Dmax [1]: ≥ 80% | Dmax [2]: ≥ 80%

CC1(C)[C@H](NC(=O)c2ccc(N3CCC(CN4CCC(n5ccc6c(N7CCC(=O)NC7=O)ncnc65)CC4)CC3)c(F)c2)C(C)(C)[C@H]1Oc1ccc(C#N)c2ncccc12 [Example 47, N-((1r,3r)-3-((8-Cyanoquinolin-5-yl)oxy)-2,2,4,4-tetramethylcyclobutyl)-4-(4-((4-(4-(2,4-dioxotetrahydropyrimidin-1(2H)-yl)-7H-pyrrolo[2,3-d]pyrimidin-7-yl)piperidin-1-yl)methyl)piperidin-1-yl)-3-fluorobenzamide]
Dmax [1]: ≥ 80% | Dmax [2]: ≥ 80%

COc1cc(O[C@H]2C(C)(C)[C@H](NC(=O)c3ccc(N4CCC(CN5CCC(n6ncc7c(N8CCC(=O)NC8=O)nccc76)CC5)CC4)c(F)c3)C2(C)C)ccc1C#N [Example 20, N-((1r,3r)-3-(4-Cyano-3-methoxyphenoxy)-2,2,4,4-tetramethylcyclobutyl)-4-(4-((4-(4-(2,4-dioxotetrahydropyrimidin-1(2H)-yl)-1H-pyrazolo[4,3-c]pyridin-1-yl)piperidin-1-yl)methyl)piperidin-1-yl)-3-fluorobenzamide]
Dmax [1]: ≥ 80% | Dmax [2]: ≥ 80%

CC1(C)[C@H](NC(=O)c2ccc(N3CCC(CN4CCC(n5ccc6c(N7CCC(=O)NC7=O)cccc65)CC4)CC3)cc2)C(C)(C)[C@H]1Oc1ccc(C#N)c2ncccc12 [Example 43, N-((1r,3r)-3-((8-Cyanoquinolin-5-yl)oxy)-2,2,4,4-tetramethylcyclobutyl)-4-(4-((4-(4-(2,4-dioxotetrahydropyrimidin-1(2H)-yl)-1H-indol-1-yl)piperidin-1-yl)methyl)piperidin-1-yl)benzamide]
Dmax [1]: ≥ 80% | Dmax [2]: ≥ 80%

CC1(C)[C@H](NC(=O)c2ccc(N3CCC(CN4CCC(n5ccc6c(N7CCC(=O)NC7=O)c(F)ccc65)CC4)CC3)c(F)c2)C(C)(C)[C@H]1Oc1ccc(C#N)c2ncccc12 [Example 51, N-((1r,3r)-3-((8-Cyanoquinolin-5-yl)oxy)-2,2,4,4-tetramethylcyclobutyl)-4-(4-((4-(4-(2,4-dioxotetrahydropyrimidin-1(2H)-yl)-5-fluoro-1H-indol-1-yl)piperidin-1-yl)methyl)piperidin-1-yl)-3-fluorobenzamide]
Dmax [1]: ≥ 80% | Dmax [2]: ≥ 80%

CC1(C)[C@H](NC(=O)c2ccc(N3CCC4(CC3)CC(N3CCC(n5ncc6c(N7CCC(=O)NC7=O)cccc65)CC3)C4)c(F)c2)C(C)(C)[C@H]1Oc1ccc(C#N)c2ncccc12 [Example 49, N-((1r,3r)-3-((8-Cyanoquinolin-5-yl)oxy)-2,2,4,4-tetramethylcyclobutyl)-4-(2-(4-(4-(2,4-dioxotetrahydropyrimidin-1(2H)-yl)-1H-indazol-1-yl)piperidin-1-yl)-7-azaspiro[3.5]nonan-7-yl)-3-fluorobenzamide]
Dmax [1]: ≥ 80% | Dmax [2]: ≥ 80%

COc1cc(O[C@H]2C(C)(C)[C@H](NC(=O)c3ccc(N4CCC(CN5CCC(n6ncc7c(N8CCC(=O)NC8=O)cccc76)CC5)CC4)cc3)C2(C)C)ccc1C#N [Example 15, N-((1r,3r)-3-(4-Cyano-3-methoxyphenoxy)-2,2,4,4-tetramethylcyclobutyl)-4-(4-((4-(4-(2,4-dioxotetrahydropyrimidin-1(2H)-yl)-1H-indazol-1-yl)piperidin-1-yl)methyl)piperidin-1-yl)benzamide]
Dmax [1]: ≥ 80% | Dmax [2]: ≥ 80%

CC1(C)[C@H](NC(=O)c2ccc(N3CCC(O)(CN4CCC(n5ncc6c(N7CCC(=O)NC7=O)cccc65)CC4)CC3)c(F)c2)C(C)(C)[C@H]1Oc1ccc(C#N)c2ncccc12 [Example 48, N-((1r,3r)-3-((8-Cyanoquinolin-5-yl)oxy)-2,2,4,4-tetramethylcyclobutyl)-4-(4-((4-(4-(2,4-dioxotetrahydropyrimidin-1(2H)-yl)-1H-indazol-1-yl)piperidin-1-yl)methyl)-4-hydroxypiperidin-1-yl)-3-fluorobenzamide]
Dmax [1]: ≥ 80% | Dmax [2]: ≥ 80%
